SMILES strings stand for the structures.

Series [1] can be described thus: Binding to serum proteins. The class given is in vitro ADME. Conditions: male, C57BL/6, mouse.
For series [2] the following is noted: human, oral administration; cited from earlier work.
A short description of series [3]: Blood cell partitioning. It is filed as in vitro ADME, mouse.
Series [4] deals with T1, mouse Abcc4 (Mus musculus, UniProt E9Q236).
T1 sequence (E9Q236 1-1325): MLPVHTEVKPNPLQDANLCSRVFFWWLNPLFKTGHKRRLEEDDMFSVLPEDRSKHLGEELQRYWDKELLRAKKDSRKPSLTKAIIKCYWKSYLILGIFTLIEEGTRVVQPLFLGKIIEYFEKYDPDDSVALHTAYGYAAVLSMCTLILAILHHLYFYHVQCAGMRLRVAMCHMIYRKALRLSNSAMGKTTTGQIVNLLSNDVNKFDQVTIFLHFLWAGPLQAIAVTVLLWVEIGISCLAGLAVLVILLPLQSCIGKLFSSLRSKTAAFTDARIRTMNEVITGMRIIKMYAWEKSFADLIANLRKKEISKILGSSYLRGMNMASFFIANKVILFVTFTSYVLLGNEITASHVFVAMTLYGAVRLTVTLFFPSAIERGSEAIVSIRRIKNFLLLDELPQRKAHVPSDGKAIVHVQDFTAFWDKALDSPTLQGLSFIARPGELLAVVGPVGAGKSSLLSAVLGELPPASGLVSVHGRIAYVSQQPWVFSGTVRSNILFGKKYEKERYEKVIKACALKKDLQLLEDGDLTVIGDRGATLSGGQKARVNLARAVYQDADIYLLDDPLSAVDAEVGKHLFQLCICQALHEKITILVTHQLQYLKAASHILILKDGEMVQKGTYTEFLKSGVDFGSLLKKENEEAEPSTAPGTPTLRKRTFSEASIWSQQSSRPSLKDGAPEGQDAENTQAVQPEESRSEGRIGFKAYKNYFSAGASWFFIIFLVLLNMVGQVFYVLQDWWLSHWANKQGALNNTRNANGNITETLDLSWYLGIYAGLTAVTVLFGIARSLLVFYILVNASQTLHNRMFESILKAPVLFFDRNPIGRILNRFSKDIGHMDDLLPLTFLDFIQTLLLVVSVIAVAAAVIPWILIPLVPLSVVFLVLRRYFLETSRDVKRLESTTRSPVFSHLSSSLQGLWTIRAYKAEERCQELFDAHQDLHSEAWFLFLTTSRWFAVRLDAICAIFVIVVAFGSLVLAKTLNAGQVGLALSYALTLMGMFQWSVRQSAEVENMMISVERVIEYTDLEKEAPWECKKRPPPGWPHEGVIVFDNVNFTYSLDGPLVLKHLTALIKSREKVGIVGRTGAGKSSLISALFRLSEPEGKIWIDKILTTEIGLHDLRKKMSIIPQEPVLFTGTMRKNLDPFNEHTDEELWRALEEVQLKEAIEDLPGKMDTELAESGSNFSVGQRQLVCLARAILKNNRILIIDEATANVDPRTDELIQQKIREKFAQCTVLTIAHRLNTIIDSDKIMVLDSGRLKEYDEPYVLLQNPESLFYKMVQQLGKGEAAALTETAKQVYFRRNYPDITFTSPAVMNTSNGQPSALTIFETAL
Description: Accumulation/efflux in Saos-2 cells transfected with Abcc4. The following applies: 100 μM, 4-h incubation.

Series [5] addresses ABCC3 (MRP3) (Homo sapiens, UniProt O15438). As to the kind of experiment: Uptake into inside-out Sf9 vesicles expressing ABCC3. The following applies: same experimental conditions as ABCC4 vesicles. It is filed as in vitro ADME.
Series [6] addresses T2, Abcc4 (Mus musculus, UniProt E9Q236).
T2 sequence (E9Q236 1-1325): T1 sequence (E9Q236 1-1325)
Description: Ex vivo mucosal-to-serosal transport in isolated stomach sacs. The class given is in vitro ADME. The following applies: Abcc4(−/−) vs wildtype mice.

Series [7] addresses T3, mOct1 (Mus musculus, UniProt O08966).
T3 sequence (O08966 1-556): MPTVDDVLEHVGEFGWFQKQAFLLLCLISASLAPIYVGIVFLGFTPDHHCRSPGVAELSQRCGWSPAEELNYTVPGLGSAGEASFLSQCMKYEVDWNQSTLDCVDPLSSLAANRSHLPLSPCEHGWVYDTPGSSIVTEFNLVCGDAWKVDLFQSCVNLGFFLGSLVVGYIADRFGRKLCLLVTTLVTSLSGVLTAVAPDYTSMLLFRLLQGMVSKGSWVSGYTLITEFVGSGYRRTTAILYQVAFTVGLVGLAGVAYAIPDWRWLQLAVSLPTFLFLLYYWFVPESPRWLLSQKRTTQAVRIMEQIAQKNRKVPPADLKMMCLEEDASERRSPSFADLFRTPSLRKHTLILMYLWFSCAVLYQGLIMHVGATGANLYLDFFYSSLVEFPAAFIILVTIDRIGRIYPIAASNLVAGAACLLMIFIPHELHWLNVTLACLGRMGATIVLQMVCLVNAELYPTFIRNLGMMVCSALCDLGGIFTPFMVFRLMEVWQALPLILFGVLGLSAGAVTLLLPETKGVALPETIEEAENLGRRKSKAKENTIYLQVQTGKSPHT
Description: Uptake in HEK293 cells expressing mOct1. The following applies: HEK293, 1 μM. It is filed as in vitro ADME.

Chain of ABCC3 (MRP3) (O15438 whole entry): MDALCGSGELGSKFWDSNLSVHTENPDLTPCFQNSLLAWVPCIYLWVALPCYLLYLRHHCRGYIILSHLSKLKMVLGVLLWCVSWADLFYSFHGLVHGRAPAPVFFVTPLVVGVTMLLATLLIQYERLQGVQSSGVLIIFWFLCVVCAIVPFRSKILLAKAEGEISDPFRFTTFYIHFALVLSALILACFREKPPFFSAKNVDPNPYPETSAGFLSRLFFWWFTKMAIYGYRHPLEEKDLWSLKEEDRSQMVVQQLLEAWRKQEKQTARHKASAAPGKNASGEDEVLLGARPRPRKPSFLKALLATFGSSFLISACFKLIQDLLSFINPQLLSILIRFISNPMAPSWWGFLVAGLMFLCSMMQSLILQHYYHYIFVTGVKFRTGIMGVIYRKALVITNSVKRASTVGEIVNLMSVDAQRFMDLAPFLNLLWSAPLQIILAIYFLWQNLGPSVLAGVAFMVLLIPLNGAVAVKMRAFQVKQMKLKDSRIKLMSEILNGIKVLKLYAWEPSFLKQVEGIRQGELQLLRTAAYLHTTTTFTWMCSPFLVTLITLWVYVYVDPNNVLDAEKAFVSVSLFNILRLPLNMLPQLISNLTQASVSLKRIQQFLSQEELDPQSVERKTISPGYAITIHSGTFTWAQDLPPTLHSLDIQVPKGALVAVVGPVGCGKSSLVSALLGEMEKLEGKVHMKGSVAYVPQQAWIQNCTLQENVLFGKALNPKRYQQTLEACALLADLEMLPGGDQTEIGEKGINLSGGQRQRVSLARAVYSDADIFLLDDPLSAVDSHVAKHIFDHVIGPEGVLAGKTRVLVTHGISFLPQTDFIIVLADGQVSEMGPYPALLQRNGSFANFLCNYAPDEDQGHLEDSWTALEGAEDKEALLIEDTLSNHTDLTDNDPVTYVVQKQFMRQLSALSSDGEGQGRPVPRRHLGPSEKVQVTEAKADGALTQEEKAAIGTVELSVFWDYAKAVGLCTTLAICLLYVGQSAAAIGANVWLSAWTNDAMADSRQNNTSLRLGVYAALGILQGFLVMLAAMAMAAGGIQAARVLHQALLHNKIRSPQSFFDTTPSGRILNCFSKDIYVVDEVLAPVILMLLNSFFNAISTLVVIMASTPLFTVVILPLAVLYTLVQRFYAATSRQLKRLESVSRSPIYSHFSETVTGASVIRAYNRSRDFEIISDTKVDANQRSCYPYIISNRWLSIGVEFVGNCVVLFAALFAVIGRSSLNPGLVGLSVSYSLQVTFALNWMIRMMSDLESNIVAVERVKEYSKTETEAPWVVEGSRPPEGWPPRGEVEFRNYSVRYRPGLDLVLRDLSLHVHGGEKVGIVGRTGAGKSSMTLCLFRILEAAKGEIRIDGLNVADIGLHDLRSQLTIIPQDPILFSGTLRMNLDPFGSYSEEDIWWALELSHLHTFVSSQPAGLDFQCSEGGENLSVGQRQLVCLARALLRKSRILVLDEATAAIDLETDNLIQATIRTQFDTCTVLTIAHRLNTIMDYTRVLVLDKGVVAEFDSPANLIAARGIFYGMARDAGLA

Turning to `Cc1nc(Nc2ncc(C(=O)Nc3c(C)cccc3Cl)s2)cc(N2CCN(CCO)CC2)n1` [dasatinib, Dasatinib], the fraction unbound in series [1] (Abcc4(−/−) mice) stood at 0.0812 ± 0.00493; in series [1] (wildtype mice), 0.087 ± 0.0044. Also, the “unchanged drug as share of the dose recovered in feces” value in series [2] was 19%. Besides, the “unchanged drug as share of the dose recovered in urine” value in series [2] is recorded as “less than 1%”. For the same compound, the figures for the Blood cell partitioning in series [3] (Abcc4(−/−) mice) and in series [3] (wildtype mice) were 36.1 ± 2.86% and 33.0 ± 1.04%, respectively. In addition, the “transport by mouse Abcc4 (accumulation in Saos-2 cells overexpressing Abcc4 compared to control cells)” value in series [4] is listed as “significantly reduced accumulation”. For the same compound, the “accumulation in ABCC3 vesicles compared to control” value in series [5] is 1.3 fold. Also, the “reduction of drug transport to the serosal side with Abcc4-deficiency” value in series [6] is “up to 3.9 fold”. The “intracellular accumulation on overexpression of Oct1” value in series [7] was “did not alter intracellular accumulation”.

Source of the values: paper PMC3752901 (Clinical cancer research : an official journal of the …, 2013).
